Experimental data from US5144010A, “Method of producing monoclonal auto-anti-idiotypic antibodies” (The Trustees of Columbia University in the City of New York, priority 1989, dated 1992).
Read-outs that look alike come from different tables or passages of the source.

Key:
[1] = molecular target: anti-steroid Fab fragments; experiment: Scatchard analysis of tritiated steroid binding to Fab fragments of affinity purified anti-steroid antibodies; design: species or system rabbit; settings: tritiated ligand, read-out: Kd for Fab fragments of the anti-steroid from Scatchard plots
Experimental: FIG. 5. Scatchard plot of the binding of [^3 H]triamcinolone acetonide to Fab fragments of affinity purified anti-steroid antibodies. Fab fragments (0.227 micrograms) were incubated with increasing concentrations of [^3 H]triamcinolone acetonide (0.4-62.5 nM) in the presence of 0.01M phosphate buffered saline pH 7.4 containing 0.1% gelatin in a total volume of 200 microliters. Total and non-specific binding (50 micromolar triamcinolone acetonide) were determined for each of the [^3 H]triamcinolone acetonide levels and all points were in duplicate. After incubating 1 hr at room temperature, add 1 ml cold 5% charcoal/dextran (diluted 1:40 in 0.01M PBS containing 0.1% gelatin) and let stand on ice for 10 min. Centrifuge down the charcoal/dextran, decant the supernatant into scintillation vials and determine the radioactivity.

anti-steroid antibodies = experiment: Competitive inhibition of binding of [3H]TA to rabbit anti-steroid antibodies (serum, affinity purified, Fab fragments)
Experimental: After incubating for 11/2 hrs at room temperature add 1 ml cold 5% charcoal/dextran (dil 1:40 with 0.1% gelatin in PBS). Let stand at 4° C. for 10 mins.

[2] = tested on: anti-steroid Fab fragments; experiment: ELISA of 8G11-C6 binding to anti-steroid Fab fragments and its inhibition; design: species or system rabbit; settings: inhibitor pre-incubated (FIG. 9, 10)
Experimental: FIG. 9 and 10. […] Controls with no inhibitor were included. […] Blanks with only PBS were included as well. The inhibitors used in FIG. 9 were triamcinolone acetonide ( ), triamcinolone-RSA ( ) and rabbit serum albumin ( ).
FIG. 11. […] The method used was similar to that described in the experimental procedure. […] 200λ of the incubation mixture was then added to microtiter wells previously coated with 10 ng anti-steroid Fab fragments and incubated for 2 hrs at 37° C.
The presence of anti-idiotypic antibodies in the hybridoma culture medium were assayed by a double antibody sandwich ELISA. […] After washing twice with 0.01M phosphate buffer - 0.14M NaCl, pH 7.4, containing 0.05% Tween (PBS-tween), the culture medium from the hybridomas was added and incubated at 37° C. for 2 hrs. The wells were washed three times with PBS-tween and 200 microliters of 1:3,000 dilution in PBS-tween of goat anti-mouse IgM-IgG horseradish peroxidase (Tago) was added. After incubating 1 hr at 37° C., the wells were washed three times with PBS-tween and 200 microliters substrate (7 mg o-phenylenediamine dichloride in 10 ml 0.1 M citrate-phosphate buffer, pH 4.8 containing 5 microliters of 30% H2 O2) was added. Depending on the intensity of the color, the reaction was stopped after 5-10 min by the addition of 50 microliters 8N H2 SO4 and the OD determined (Titretek) at 492 nm.

[3] = molecular target: T1, partially purified glucocorticoid receptor (Rattus norvegicus, UniProt P06536); experiment: ELISA of 8G11-C6 binding to partially purified glucocorticoid receptor and its inhibition; settings: ELISA (FIG. 13)
T1 sequence (P06536 1-795): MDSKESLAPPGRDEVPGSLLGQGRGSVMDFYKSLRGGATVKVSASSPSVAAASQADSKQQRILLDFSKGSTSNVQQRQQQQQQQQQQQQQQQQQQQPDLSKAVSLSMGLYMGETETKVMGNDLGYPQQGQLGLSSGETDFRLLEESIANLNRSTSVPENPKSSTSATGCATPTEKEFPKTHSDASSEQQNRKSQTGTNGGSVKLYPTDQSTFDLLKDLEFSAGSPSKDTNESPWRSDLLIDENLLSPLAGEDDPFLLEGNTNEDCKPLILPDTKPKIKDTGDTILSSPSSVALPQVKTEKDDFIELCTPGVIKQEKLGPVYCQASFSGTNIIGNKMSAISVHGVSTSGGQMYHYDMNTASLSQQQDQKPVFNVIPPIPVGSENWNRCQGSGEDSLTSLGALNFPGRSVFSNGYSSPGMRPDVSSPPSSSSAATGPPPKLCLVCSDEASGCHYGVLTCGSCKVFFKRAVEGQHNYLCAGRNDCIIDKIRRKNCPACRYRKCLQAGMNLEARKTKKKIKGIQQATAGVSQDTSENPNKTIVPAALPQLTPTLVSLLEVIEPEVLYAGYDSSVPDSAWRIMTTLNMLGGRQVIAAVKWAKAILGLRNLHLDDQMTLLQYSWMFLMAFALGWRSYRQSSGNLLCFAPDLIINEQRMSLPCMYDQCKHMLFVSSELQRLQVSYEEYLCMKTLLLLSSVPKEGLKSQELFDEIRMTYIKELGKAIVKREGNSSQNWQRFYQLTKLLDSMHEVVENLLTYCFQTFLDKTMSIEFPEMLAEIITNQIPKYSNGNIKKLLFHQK
Experimental: FIG. 12. […] 200 microliters containing either 1.08 micrograms ( ) or 0.54 micrograms ( ) of a partially purified receptor preparation in 0.1 M NaHCO3 were added to the wells of the polystyrene plastic and incubated overnight at 4° C. […] See methods section for the methodology employed.
FIG. 13. […] 200 microliters containing 0.54 micrograms protein of a partially purified receptor preparation in 0.1 M NaHCO3 pH 9.3 was added to the wells of polystyrene plates. These were incubated for 2 hrs at 37° C. Washed 2× with PBS containing 0.02% Tween. […] See methods for the methodology employed. The inhibitors used were triamcinolone acetonide ( ), rabbit serum albumin ( ) and triamcinolone-RSA ( ).

glucocorticoid receptor [4] = molecular target: T2, glucocorticoid receptor (Rattus norvegicus, UniProt P06536); experiment: biochemical
T2 sequence (P06536 1-795): T1 sequence (P06536 1-795)
Experimental: (§3) Incubate in a total volume of 500 microliters, for 2 hrs at 4° C., 20 mM HEPES buffer containing 50 mM NaCl, 1 mM EDTA, 10% glycerol 0.1 mM DTT pH 7.6, 10 nM [^3 H]TA and 200 microliters rat liver cytosol. Add 250 microliters 5% charcoal/dextran suspension and after 10 min centrifuge and determine the radioactivity in 200 λ aliquot.
(§4) The results tabulated in table I below represents the amount of unlabeled steroid that can displace 50% binding of 1×10^-8 M [^3 H]TA. Binding in the absence of competing steroid was taken as 100%.
(§5) Table I: Competitive inhibition of binding of [^3 H] triamcinolone to
(§6) glucocorticoid receptor included 100 ml of rat liver cytosol. 10^-8 M
(§7) [^3 H]TA and increasing concentrations of steroid in a total volume o
(§8) 200 ml. After incubating for 2 hrs at 4° C., 100 5%
(§9) charcoal/dextran was added. Let stand for 5 mins at 4° C. Make up
(§10) to 1 ml with PBS and after 5 mins centrifuge down charcoal. Decant
(§11) supernatant into scintillation vials. Add 10 ml hydrofluor and count.

Torpedo AChR = molecular target: T3, Torpedo AChR (Tetronarce californica, UniProt P02710+P02714+P02718); experiment: Enzyme immunoassay of F8-D5 binding to Torpedo AChR and its inhibition
T3 construct: purified Torpedo AChR preparation; from tissue; host or cells: Torpedo electric organ (inferred, the usual source of purified Torpedo receptor)
Experimental: (§1) Wells of polystyrene plates (Corning) were then coated with 150 microliters of either 400 ng/ml purified rabbit anti-BisQ (1) in 0.1 M NaHCO3, pH 9.3, or […] purified Torpedo receptor in the same buffer. Coating was accomplished by incubating for 2 h at 37° C. After two washings with 0.01 M phosphate buffer:0.14 M NaCl, pH 7.2, containing 0.05% v/v Tween-20 (PBS-Tween), the wells were exposed to the various concentrations of F8-D5 in PBS-Tween. After incubation at 37° C. for 2h, the wells were washed three times with PBS-Tween and then filled with 200 microliters of 1:1,000 dilution in PBS-Tween of goat anti-mouse immunoglobulin labeled with horseradish -peroxidase (Sigma). After incubation at 37° C. for 1 h, the wells were washed three times with PBS-Tween. Peroxidase was assayed by incubation with o-phenylenediamine dihydrochloride (7 mg in 10 ml 0.1 M citrate-phosphate buffer, pH 4.8, containing 5 microliters of 30% H2 O2) for 10 min. The reaction was stopped with 50 microliters per well of 4 M H2 SO4 and the color read at 492 nm in a Multiskan Titertek apparatus. Values were corrected for a PBS blank which was never higher than 0.150. (The above conditions were not chosen for optimal sensitivity but for speed and convenience.)
(§2) To confirm that the same monoclonal antibody bound receptor and anti-BisQ, reciprocal inhibition experiments were carried. […]

rabbit anti-BisQ = experiment: Enzyme immunoassay of F8-D5 binding to rabbit anti-BisQ and its inhibition; settings: read-out: concentration giving 50% inhibition of binding of F8-D5 to rabbit anti-BisQ; stated as a similar concentration
Experimental: as §1, §2

glucocorticoid receptor [5] = molecular target: T2, glucocorticoid receptor; experiment: Competitive inhibition of binding of [3H]triamcinolone acetonide to glucocorticoid receptor in rat liver cytosol; settings: apparent Kd of the glucocorticoid receptor, competitive binding with [3H]TA as tracer (FIG. 6, Table I)
Experimental: as §3, §4, §5, §6, §7, §8, §9, §10, §11

[6] = affinity purified anti-steroid 1.3 micrograms, 1×10^-8 M [3H]TA, read-out: Affinity purified anti-steroid: amount of unlabeled steroid that can displace 50% binding of [3H]TA
[7] = anti-steroid Fab fragments 0.18 micrograms, 1×10^-8 M [3H]TA, read-out: Rabbit serum 541 Fab fragments: amount of unlabeled steroid that can displace 50% binding of [3H]TA
[8] = unprocessed rabbit serum 540 dil 1:1000, 1×10^-8 M [3H]TA, read-out: Rabbit Serum 540 Unprocessed: amount of unlabeled steroid that can displace 50% binding of [3H]TA
[9] = unprocessed rabbit serum 540 dil 1:1000, 1×10^-8 M [3H]TA

T3 sequence (P02710 25-461): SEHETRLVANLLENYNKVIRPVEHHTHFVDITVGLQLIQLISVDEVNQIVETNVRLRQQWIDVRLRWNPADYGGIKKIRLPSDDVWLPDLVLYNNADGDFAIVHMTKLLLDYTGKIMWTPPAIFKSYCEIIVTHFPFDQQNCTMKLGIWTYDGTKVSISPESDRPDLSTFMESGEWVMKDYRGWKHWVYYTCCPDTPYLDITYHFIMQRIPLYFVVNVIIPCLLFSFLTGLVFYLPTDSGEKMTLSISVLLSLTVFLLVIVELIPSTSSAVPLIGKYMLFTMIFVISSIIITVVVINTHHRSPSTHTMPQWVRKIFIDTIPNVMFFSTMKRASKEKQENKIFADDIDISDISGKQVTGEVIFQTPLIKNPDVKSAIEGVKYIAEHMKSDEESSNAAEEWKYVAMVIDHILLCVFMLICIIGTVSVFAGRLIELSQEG
T3 sequence (P02712 25-493 partner): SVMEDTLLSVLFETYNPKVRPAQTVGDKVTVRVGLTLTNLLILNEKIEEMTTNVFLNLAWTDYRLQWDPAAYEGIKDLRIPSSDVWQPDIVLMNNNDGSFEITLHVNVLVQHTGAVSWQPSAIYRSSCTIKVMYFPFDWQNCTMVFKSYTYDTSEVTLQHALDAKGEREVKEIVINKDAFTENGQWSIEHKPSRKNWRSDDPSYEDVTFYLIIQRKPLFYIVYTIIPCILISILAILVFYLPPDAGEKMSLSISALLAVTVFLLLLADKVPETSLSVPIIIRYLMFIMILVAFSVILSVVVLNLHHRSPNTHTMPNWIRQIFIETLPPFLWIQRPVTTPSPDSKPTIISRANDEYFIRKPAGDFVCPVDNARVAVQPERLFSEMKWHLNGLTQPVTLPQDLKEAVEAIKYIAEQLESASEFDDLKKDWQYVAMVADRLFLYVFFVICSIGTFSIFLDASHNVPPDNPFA
T3 sequence (P02714 18-506): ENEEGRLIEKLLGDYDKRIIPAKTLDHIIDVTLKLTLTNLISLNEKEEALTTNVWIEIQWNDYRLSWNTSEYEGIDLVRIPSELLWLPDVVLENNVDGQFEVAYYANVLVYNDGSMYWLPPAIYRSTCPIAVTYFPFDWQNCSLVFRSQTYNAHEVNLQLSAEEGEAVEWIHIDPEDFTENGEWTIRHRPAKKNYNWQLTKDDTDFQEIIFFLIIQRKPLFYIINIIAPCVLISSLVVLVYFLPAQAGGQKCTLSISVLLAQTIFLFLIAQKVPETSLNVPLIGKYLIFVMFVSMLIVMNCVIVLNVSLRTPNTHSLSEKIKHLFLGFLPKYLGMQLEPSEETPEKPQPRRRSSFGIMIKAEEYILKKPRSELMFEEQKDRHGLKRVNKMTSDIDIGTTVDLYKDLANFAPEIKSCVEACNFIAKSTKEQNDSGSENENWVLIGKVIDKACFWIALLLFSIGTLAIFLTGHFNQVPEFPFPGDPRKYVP
T3 sequence (P02718 22-522): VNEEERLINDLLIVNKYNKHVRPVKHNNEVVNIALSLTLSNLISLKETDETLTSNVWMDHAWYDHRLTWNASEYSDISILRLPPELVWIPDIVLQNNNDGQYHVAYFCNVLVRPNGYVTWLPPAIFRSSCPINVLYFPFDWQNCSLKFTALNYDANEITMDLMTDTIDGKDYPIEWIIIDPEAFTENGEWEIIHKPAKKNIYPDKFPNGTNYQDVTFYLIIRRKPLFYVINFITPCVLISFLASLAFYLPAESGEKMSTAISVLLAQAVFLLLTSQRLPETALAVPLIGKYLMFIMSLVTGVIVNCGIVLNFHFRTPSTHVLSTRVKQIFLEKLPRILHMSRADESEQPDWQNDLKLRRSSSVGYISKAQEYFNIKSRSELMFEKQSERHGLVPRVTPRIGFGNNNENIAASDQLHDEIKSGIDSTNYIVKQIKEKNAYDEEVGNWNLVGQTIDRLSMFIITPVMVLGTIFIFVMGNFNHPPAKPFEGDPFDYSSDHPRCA

| Compound | IC50 (anti-steroid antibodies; [6]) [µM] | IC50 (anti-steroid antibodies; [7]) [µM] | IC50 (anti-steroid antibodies; [8]) [µM] | effect on the binding of 8G11-C6 to anti-steroid Fab fragments [2] | other results |
| --- | --- | --- | --- | --- | --- |
| C[C@@H]1C[C@H]2[C@@H]3CCC4=CC(=O)C=C[C@]4(C)[C@@]3(F)[C@@H](O)C[C@]2(C)[C@@]1(O)C(=O)CO [Dexamethasone] | 0.62 | 0.63 | 0.12 |  | Kd [1]: 0.15 µM |
| rabbit serum albumin: carrier protein tested alone as inhibitor |  |  |  | did not affect |  |
| C[C@]12CCC(=O)C=C1CC[C@@H]1[C@@H]2[C@@H](O)C[C@@]2(C)[C@H]1CC[C@]2(O)C(=O)CO [Hydrocortisone] | 100 | 100 | 5 |  |  |
| C[C@]12CCC(=O)C[C@@H]1CC[C@@H]1[C@@H]2CC[C@]2(C)[C@@H](O)CC[C@@H]12 [Dihydrotestosterone] |  |  |  |  | Rabbit Serum 540 Unprocessed: amount of unlabeled steroid that can displace 50% binding of [3H]TA (anti-steroid antibodies; [9]): no effect |
| C[C@]12CC[C@H]3[C@@H](CCC4=CC(=O)CC[C@@]43C)[C@@H]1CC[C@@H]2O [Testosterone] |  |  |  | slight activation of binding | effect on the binding of 8G11-C6 to partially purified glucocorticoid receptor [3]: only a slight inhibitory effect; Affinity purified anti-steroid: amount of unlabeled steroid that can displace 50% binding of [3H]TA (anti-steroid antibodies; affinity purified anti-steroid 1.3 micrograms, 1×10^-8 M [3H]TA): not inhibited; Rabbit serum 541 Fab fragments: amount of unlabeled steroid that can displace 50% binding of [3H]TA (anti-steroid antibodies; anti-steroid Fab fragments 0.18 micrograms, 1×10^-8 M [3H]TA): not inhibited; Rabbit Serum 540 Unprocessed: amount of unlabeled steroid that can displace 50% binding of [3H]TA (anti-steroid antibodies; [9]): not inhibited |
| C[C@]12CC[C@@H]3c4ccc(O)cc4CC[C@H]3[C@@H]1CC[C@@H]2O [estradiol-17β] |  |  |  | slight activation of binding | effect on the binding of 8G11-C6 to partially purified glucocorticoid receptor [3]: no effect |
| C[C@]12C=CC(=O)C=C1CC[C@H]1[C@@H]3C[C@@H](O)[C@](O)(C(=O)CO)[C@@]3(C)C[C@H](O)[C@@]12F [Triamcinolone, 9-fluoro-11β, α16 , 17, 21-tetrahydroxypregna-1,4-diene-3, 20-dione] | 0.015 | 0.015 | 0.0032 | slight activation of binding | IC50 (glucocorticoid receptor [4]): 0.005 µM |
| CC(=O)[C@H]1CC[C@H]2[C@@H]3CCC4=CC(=O)CC[C@]4(C)[C@H]3CC[C@]12C [Progesterone] | 100 | 100 | 100 |  |  |
| C[N+](C)(C)Cc1cccc(/N=N/c2cccc(C[N+](C)(C)C)c2)c1 [BisQ, trans-3,3'-bis(α-trimethylammonium)azotoluene] |  |  |  |  | IC50 (Torpedo AChR): 40 µM; IC50 (rabbit anti-BisQ): ~40 µM |
| C[C@]12C[C@H](O)[C@H]3[C@@H](CCC4=CC(=O)CC[C@@]43C)[C@@H]1CC[C@@H]2C(=O)CO [Corticosterone] | 100 | 100 | 6.3 |  |  |
| CC1(C)O[C@@H]2C[C@H]3[C@@H]4CCC5=CC(=O)C=C[C@]5(C)[C@@]4(F)[C@@H](O)C[C@]3(C)[C@]2(C(=O)CO)O1 [triamcinolone acetonide] |  |  |  | did not affect | Kd (glucocorticoid receptor [4]): 0.015 µM; Kd (anti-steroid antibodies; competitive binding with [3H]TA as tracer (FIG. 6, Table I), read-out: apparent Kd of the anti-steroid in unprocessed rabbit serum): 0.0032 µM; Kd (glucocorticoid receptor [5]): 0.005 µM |
